Columns and labels:
HL-60(TB) = test: NCI SRB cytotoxicity, leukemia HL-60(TB); type: cell-based; settings: Homo sapiens, 48 h exposure
Procedure: (§1) The pyrazolochalcones (7e, 8e, 10e, 11e, 12e, 13e and 8f) have been tested against fifty nine human tumor cell lines derived from nine cancer types (leukemia, non-small cell lung cancer, colon cancer, CNS cancer, melanoma, ovarian cancer, renal cancer, prostate cancer and breast cancer) as per the NCI protocol. For each compound, dose response curves for individual cell lines have been measured at a minimum of five concentrations at 10 fold dilutions. A protocol of 48 h continuous drug exposure has been used, and a sulforhodamine B (SRB) protein assay has been used to estimate cell viability or growth. The concentration for 50% cell growth inhibition (GI50), 50% cell death (LC50, 50% growth) and total cell growth inhibition (TGI, 0% growth) values were tabulated (Table-1). DMSO was used as control to calculate the values of GI50, LC50 and TGI. The compounds 7e, 8e, 10e, 11e, 12e, 13e and 8f has been evaluated for their in vitro cytotoxicity in […] cell lines from nine human cancer types of leukemia (K-562, SR), non-small cell lung (Hop-62, NCI-H226, NCI-H522), colon (HCT-116, HCT-15, HCC-2998), CNS (SF-539), melanoma (SK-MEL-5, UACC-62, M14), ovarian (IGROV1), renal (A498), prostate (PC3) and breast (BT-549, MDA-MB-435, HS578T) origin. The results are expressed as percent of cell growth determined relative to that of untreated control cells (Table 2).

NCI-H226 = test: NCI SRB cytotoxicity, non-small cell lung NCI-H226; type: cell-based; settings: Homo sapiens, 48 h exposure
Procedure: as §1

SN12C = test: NCI SRB cytotoxicity, renal SN12C; type: cell-based; settings: Homo sapiens, 48 h exposure
Procedure: as §1

NCI-H23 = test: NCI SRB cytotoxicity, non-small cell lung NCI-H23; type: cell-based; settings: Homo sapiens, 48 h exposure
Procedure: as §1

Melanoma = test: NCI SRB cytotoxicity, melanoma panel average; type: cell-based, human; settings: average of cell lines
Procedure: as §1
(§2) Each cancer type represents the average of six to eight different cancer cell lines.

LOX IMVI = test: NCI SRB cytotoxicity, melanoma LOX IMVI; type: cell-based; settings: Homo sapiens, 48 h exposure
Procedure: as §1

M14 = test: NCI SRB cytotoxicity, melanoma M14; type: cell-based; settings: Homo sapiens, 48 h exposure
Procedure: as §1

T-47D = test: NCI SRB cytotoxicity, breast T-47D; type: cell-based; settings: Homo sapiens, T47D, 48 h exposure
Procedure: as §1

IGROV1 = test: NCI SRB cytotoxicity, ovarian IGROV1; type: cell-based; settings: Homo sapiens, IGROV-1, 48 h exposure
Procedure: as §1

SNB-75 = test: NCI SRB cytotoxicity, CNS SNB-75; type: cell-based; settings: Homo sapiens, 48 h exposure
Procedure: as §1

Renal = test: NCI SRB cytotoxicity, renal panel average; type: cell-based, human; settings: average of cell lines
Procedure: as §1, §2

SF-295 = test: NCI SRB cytotoxicity, CNS SF-295; type: cell-based; settings: Homo sapiens, 48 h exposure
Procedure: as §1

K-562 = test: NCI SRB cytotoxicity, leukemia K-562; type: cell-based; settings: Homo sapiens, K562, 48 h exposure
Procedure: as §1

CCRF-CEM = test: NCI SRB cytotoxicity, leukemia CCRF-CEM; type: cell-based; settings: Homo sapiens, 48 h exposure
Procedure: as §1

SK-MEL-28 = test: NCI SRB cytotoxicity, melanoma SK-MEL-28; type: cell-based; settings: Homo sapiens, 48 h exposure
Procedure: as §1

UO-31 = test: NCI SRB cytotoxicity, renal UO-31; type: cell-based; settings: Homo sapiens, 48 h exposure
Procedure: as §1

SK-MEL-5 = test: NCI SRB cytotoxicity, melanoma SK-MEL-5; type: cell-based; settings: Homo sapiens, 48 h exposure
Procedure: as §1

SR = test: NCI SRB cytotoxicity, leukemia SR; type: cell-based; settings: Homo sapiens, 48 h exposure
Procedure: as §1

DU-145 = test: NCI SRB cytotoxicity, prostate DU-145; type: cell-based; settings: Homo sapiens, 48 h exposure
Procedure: as §1

KM12 = test: NCI SRB cytotoxicity, colon KM12; type: cell-based; settings: Homo sapiens, 48 h exposure
Procedure: as §1

SNB-19 = test: NCI SRB cytotoxicity, CNS SNB-19; type: cell-based; settings: Homo sapiens, 48 h exposure
Procedure: as §1

NCI-H460 = test: NCI SRB cytotoxicity, non-small cell lung NCI-H460; type: cell-based; settings: Homo sapiens, 48 h exposure
Procedure: as §1

OVCAR-4 = test: NCI SRB cytotoxicity, ovarian OVCAR-4; type: cell-based; settings: Homo sapiens, 48 h exposure
Procedure: as §1

MCF7 = test: NCI SRB cytotoxicity, breast MCF7; type: cell-based; settings: Homo sapiens, 48 h exposure
Procedure: as §1

A498 = test: NCI SRB cytotoxicity, renal A498; type: cell-based; settings: Homo sapiens, 48 h exposure
Procedure: as §1

Non-small cell lung = test: NCI SRB cytotoxicity, non-small cell lung panel average; type: cell-based, human; settings: average of cell lines
Procedure: as §1, §2

OVCAR-5 = test: NCI SRB cytotoxicity, ovarian OVCAR-5; type: cell-based; settings: Homo sapiens, 48 h exposure
Procedure: as §1

U251 = test: NCI SRB cytotoxicity, CNS U251; type: cell-based; settings: Homo sapiens, U-251, 48 h exposure
Procedure: as §1

HOP92 = test: NCI SRB cytotoxicity, non-small cell lung HOP92; type: cell-based; settings: Homo sapiens, HOP-92, 48 h exposure
Procedure: as §1

MALME-3M = test: NCI SRB cytotoxicity, melanoma MALME-3M; type: cell-based; settings: Homo sapiens, 48 h exposure
Procedure: as §1

786-0 = test: NCI SRB cytotoxicity, renal 786-0; type: cell-based; settings: Homo sapiens, 48 h exposure
Procedure: as §1

BT-549 = test: NCI SRB cytotoxicity, breast BT-549; type: cell-based; settings: Homo sapiens, 48 h exposure
Procedure: as §1

SK-OV-3 = test: NCI SRB cytotoxicity, ovarian SK-OV-3; type: cell-based; settings: Homo sapiens, 48 h exposure
Procedure: as §1

RXF 393 = test: NCI SRB cytotoxicity, renal RXF 393; type: cell-based; settings: Homo sapiens, 48 h exposure
Procedure: as §1

UACC-257 = test: NCI SRB cytotoxicity, melanoma UACC-257; type: cell-based; settings: Homo sapiens, 48 h exposure
Procedure: as §1

[1] = Homo sapiens, read-out: Log10 LC50 (concentration in mol/L causing 50% cell death) (converted)

Q: Which GI50 (HL-60(TB)) does the source give for COc1ccc(C(=O)/C=C/c2cc(-c3ccc4c(c3)OCO4)n[nH]2)cc1OC [8f, (E)-3-(3-(benzo[d][1,3]dioxol-5-yl)-1H-pyrazol-5-yl)-1-(3,4-dimethoxyphenyl)prop-2-en-1-one] here?
A: The GI50 was 2820 nM.

Q: And the GI50 (NCI-H226)?
A: Its GI50 is 3.4 µM.

Q: And the GI50 (SN12C)?
A: The GI50 was 3.25 µM.

Q: And the GI50 (NCI-H23)?
A: The GI50 was 4.12 µM.

Q: What about the LC50 (Melanoma; [1]) of the same molecule?
A: Its LC50 is 0.00105 mol/L.

Q: And the “Log10 GI50 (concentration in mol/L causing 50% growth inhibition)” value (Melanoma)?
A: Its value is −5.79 mol/L.

Q: What about the “Log10 TGI (concentration in mol/L causing total growth inhibition)” value (Melanoma) of the same molecule?
A: The value was −4.80 mol/L.

Q: What about the GI50 (LOX IMVI) of the same molecule?
A: Its GI50 is 1970 nM.

Q: What about the GI50 (M14) of the same molecule?
A: The GI50 was 6.36 µM.

Q: And the GI50 (T-47D)?
A: The GI50 was 3.2 µM.

Q: What about the GI50 (IGROV1) of the same molecule?
A: The GI50 was 2790 nM.

Q: And the GI50 (SNB-75)?
A: Its GI50 is 1980 nM.

Q: What about the CC50 (Renal; [1]) of the same molecule?
A: Its CC50 is 32.4 µM.

Q: What about the “Log10 GI50 (concentration in mol/L causing 50% growth inhibition)” value (Renal) of the same molecule?
A: The value was −5.46 mol/L.

Q: What about the “Log10 TGI (concentration in mol/L causing total growth inhibition (0% growth))” value (Renal) of the same molecule?
A: The value was −5.01 mol/L.

Q: What about the GI50 (SF-295) of the same molecule?
A: The GI50 was 2510 nM.

Q: And the GI50 (K-562)?
A: Its GI50 is 2470 nM.

Q: What about the GI50 (CCRF-CEM) of the same molecule?
A: Its GI50 is 2520 nM.

Q: What about the GI50 (SK-MEL-28) of the same molecule?
A: The GI50 was 5.76 µM.

Q: What about the GI50 (UO-31) of the same molecule?
A: Its GI50 is 2300 nM.

Q: And the GI50 (SK-MEL-5)?
A: The GI50 was 6.74 µM.

Q: And the GI50 (SR)?
A: The GI50 was 1270 nM.

Q: And the GI50 (DU-145)?
A: Its GI50 is 1800 nM.

Q: What about the GI50 (KM12) of the same molecule?
A: The GI50 was 2860 nM.

Q: And the GI50 (SNB-19)?
A: The GI50 was 3.2 µM.

Q: And the GI50 (NCI-H460)?
A: The GI50 was 1810 nM.

Q: And the GI50 (OVCAR-4)?
A: Its GI50 is 2110 nM.

Q: What about the GI50 (MCF7) of the same molecule?
A: Its GI50 is 3.2 µM.

Q: What about the GI50 (A498) of the same molecule?
A: The GI50 was 1550 nM.

Q: What about the LC50 (Non-small cell lung; [1]) of the same molecule?
A: Its LC50 is 0.000513 mol/L.

Q: And the “Log10 GI50 (concentration in mol/L causing 50% growth inhibition)” value (Non-small cell lung)?
A: The value was −5.6 mol/L.

Q: What about the “Log10 TGI (concentration in mol/L causing total growth inhibition (0% growth))” value (Non-small cell lung) of the same molecule?
A: Its value is −5.08 mol/L.

Q: What about the GI50 (OVCAR-5) of the same molecule?
A: The GI50 was 3.36 µM.

Q: And the GI50 (U251)?
A: Its GI50 is 1580 nM.

Q: And the GI50 (HOP92)?
A: The GI50 was 2160 nM.

Q: What about the GI50 (MALME-3M) of the same molecule?
A: Its GI50 is 7.32 µM.

Q: What about the GI50 (786-0) of the same molecule?
A: The GI50 was 3.12 µM.

Q: What about the GI50 (BT-549) of the same molecule?
A: The GI50 was 1900 nM.

Q: What about the GI50 (SK-OV-3) of the same molecule?
A: Its GI50 is 3.97 µM.

Q: What about the GI50 (RXF 393) of the same molecule?
A: Its GI50 is 2420 nM.

Q: What about the GI50 (UACC-257) of the same molecule?
A: Its GI50 is 7.06 µM.
